Test system: UGT (UDPGA-dependent glucuronidation)
Test: Incubation of [14C]DCDQ with human liver microsomes (Km values, metabolite formation)
Assay type: in vitro ADME
Details: pH 7.4; 0.5 mg/mL human liver microsomes, [14C]DCDQ 0.5-100 μM, UDPGA, 10 min
Experimental: [^14C]DCDQ was mixed with non-radiolabeled DCDQ (1:3 or 1:5) in the incubations. Microsomal incubations consisted of [^14C]DCDQ, magnesium chloride (10 mM) and liver microsomes incubated in 0.5 mL of 0.1 M potassium phosphate buffer, pH 7.4. [^14C]DCDQ (20 μL) in water was added to the incubation tubes containing buffer, magnesium chloride solution and microsomes. After mixing, the tubes were pre-incubated for 2 minutes in a shaking water bath at 37° C. The reactions were initiated by the addition of UDPGA or the NADPH regenerating system. UDPGA was added to incubations as a 50 μL aliquot of a 20 mM solution in water, to give a final concentration of 2 mM. An NADPH regenerating system (30 μL) was added to incubations to evaluate CYP450-mediated metabolism. The NADPH regenerating system consisted of glucose-6-phosphate (2 mg/mL), glucose-6-phosphate dehydrogenase (0.8 units/mL) and NADP^+ (2 mg/mL). Control incubations were conducted under the same conditions, but without the NADPH generating system, UDPGA or microsomes. All incubations were performed in duplicate. Incubations were stopped by the addition of 0.5 mL ice-cold methanol. Samples were vortex-mixed. Denatured proteins were separated by centrifugation at 4300 rpm and 4° C. for 10 minutes (Model T21 super centrifuge, Sorvall). The protein pellets were extracted with 0.5 mL of methanol. The supernatant was combined for each sample, mixed and evaporated to a volume of about 0.3 mL under a nitrogen stream in a Zymark TurboVap LV evaporator (Caliper Life Science, Hopkinton, Mass.). The concentrated sample was centrifuged and aliquots were radioassayed and analyzed by HPLC. This method recovered an average of 92.1% of the radioactivity from the reaction mixture.
Initial rate conditions were determined for DCDQ metabolism in incubations with human liver microsomes in the presence of NADPH or UDPGA. Incubations for the time course study contained 20 μM of [^14C]DCDQ and 0.5 mg/mL of microsomal proteins, and were incubated at 37° C. with mild shaking for 0, 5, 10, 20, 30, 40, 50 and 60 minutes. The protein dependence study was conducted with 20 μM of [^14C]DCDQ incubated for 20 minutes with 0, 0.1, 0.25, 0.5, 0.75 and 1.0 mg/mL of microsomal proteins.
The Km values were determined with 0.5 mg/mL of human liver microsomes incubated with [^14C]DCDQ for 20 minutes with the NADPH regenerating system or for 10 minutes with UDPGA. [^14C]DCDQ concentrations used were 0.5,1, 5, 10, 25, 50, 75 and 100 μM.
To evaluate species differences in cytochrome P450- and UGT-mediated metabolism, [^14C]DCDQ was incubated for 20 minutes with 0.5 mg/mL liver microsomal proteins from mice, rats, dogs or humans in the presence of the NADPH regenerating system or UDPGA. The assay conditions were the same as described above, and DCDQ concentrations were 12 μM and 56 μM for cytochrome P450- and UGT-mediated metabolism, respectively.
A Waters model 2690 HPLC system (Waters Corp., Milford, Mass.) with a built-in autosampler was used for analysis. Separations were accomplished on a Phenomenex Luna C18(2) column (2×150 mm, 5 μm) (Phenomenex, Torrance, Calif.) coupled with a filter (4×2 mm) cartridge. A variable wavelength UV detector set to monitor 250 nm and Flo-One β Model A525 radioactivity flow detector (Perkin Elmer) with a 250 μL LQTR flow cell were used for data acquisition. The flow rate of Ultima Flow M scintillation fluid was 1 mL/min, providing a mixing ratio of scintillation cocktail to mobile phase of 5:1. The sample chamber in the autosampler was maintained at 4° C., while the column was at ambient temperature of about 20° C. The mobile phase consisted of 10 mM ammonium acetate, pH 4.5 (A) and methanol (B) and was delivered at 0.2 mL/min. The linear gradient conditions were as follows: […]

Km at 10 min: 56.1 µM
SMILES: O=C(O)[C@H]1O[C@@H](OC(=O)N2CCN3C[C@@H]4CCC[C@@H]4c4cccc(c43)C2)[C@H](O)[C@@H](O)[C@@H]1O [Metabolite M6, carbamoyl glucuronide of DCDQ]
